Literature values as cited in patent US20110281902A1, “COMBINATIONS COMPRISING A PROTEIN KINASE INHIBITOR BEING A PYRIMIDYLAMINOBENZAMIDE COMPOUND AND A HSP90 INHIBITOR SUCH AS 17-AAG” (priority 2005, published 2011).

What was measured:
[1] = clinical trials in hematological malignancies and solid tumors
[2] = makes it difficult to formulate/administer

C=CCNC1=C2C[C@@H](C)C[C@H](OC)[C@H](O)[C@@H](C)/C=C(\C)[C@H](OC(N)=O)[C@@H](OC)/C=C\C=C(/C)C(=O)NC(=CC1=O)C2=O [17-AAG, 17-allylamino-17-demethoxygeldanamycin]
dose limiting toxicity [1]: hepatic | solubility [2]: poor solubility
